Assay results: ChEMBL document CHEMBL4483862, “Open-source discovery of chemical leads for next-generation chemoprotective antimalarials” (2018)

Test system: Plasmodium berghei
Assay: Luciferase/luciferin-expressing antifolate-resistant parasites were used to infect a culture of HepG2 cells that were pre-incubated with compounds. Infected hepatocytes emit light due to the luciferase reaction. Assay results are presented as the percent inhibition of light emission compared to control. […]
Type: functional
Conditions: sporozoite; for IC90: read-out: LUCIFERASE INFECTION ASSAY - IC90
[1] = read-out: LUCIFERASE INFECTION ASSAY - IC50

SMILES | IC90 [µM] | IC50 [1] [µM] | also measured
O=[N+]([O-])c1ccc(Oc2c(Cl)cc(Cl)cc2Cl)cc1 | > 10.4 | – | IC50 (PBLUC_HILL_SLOPE 1.34, PBLUC_R_SQUARED 0.555, read-out: LUCIFERASE INFECTION ASSAY - IC50): 3.75 µM
Cc1cc(NC(=O)C(C)n2nc(-c3cccs3)c3ccccc3c2=O)no1 (stereo not drawn) | > 10 | – | IC50 (HEPG2TOX_HILL_SLOPE 9.69, HEPG2TOX_R_SQUARED 0.542, read-out: LUCIFERASE INFECTION ASSAY - IC50): > 10 µM
CC1Cc2cc(C3=NNC(=NC4CC4)SC3)ccc2N1S(C)(=O)=O (stereo not drawn) | 1.38 | – | IC50 (FFLUC_HILL_SLOPE 2.25, FFLUC_R_SQUARED 0.383, HEPG2TOX_HILL_SLOPE 1.12, HEPG2TOX_R_SQUARED 0.483, PBLUC_HILL_SLOPE 1.74, PBLUC_R_SQUARED 0.672, read-out: LUCIFERASE INFECTION ASSAY - IC50): 0.197 µM
Cc1cc(C)c(C(=O)CSc2cc(C)c3cccc(C)c3n2)c(C)c1 | > 10 | – | IC50 (FFLUC_HILL_SLOPE 3.04, FFLUC_R_SQUARED 0.417, HEPG2TOX_HILL_SLOPE 2.16, HEPG2TOX_R_SQUARED 0.191, read-out: LUCIFERASE INFECTION ASSAY - IC50): > 10 µM
Cc1ccc2c(c1)CCCN2C(=O)CCc1nc(O)c2ccccc2n1 | > 10 | – | IC50 (HEPG2TOX_HILL_SLOPE 1.38, HEPG2TOX_R_SQUARED 0.978, PBLUC_HILL_SLOPE 0.881, PBLUC_R_SQUARED 0.443, read-out: LUCIFERASE INFECTION ASSAY - IC50): 3.89 µM
Cc1cc(C)c(S(=O)(=O)Nc2cc(C)nn2-c2ccccn2)c(C)c1 | 3.28 | – | IC50 (HEPG2TOX_HILL_SLOPE 1.93, HEPG2TOX_R_SQUARED 0.937, PBLUC_HILL_SLOPE 16.1, PBLUC_R_SQUARED 0.725, read-out: LUCIFERASE INFECTION ASSAY - IC50): 2.86 µM
N#C/C(=C\c1cc(Cl)cc(Cl)c1O)c1ccc([N+](=O)[O-])cc1 | 6.14 | – | IC50 (PBLUC_HILL_SLOPE 3.19, PBLUC_R_SQUARED 0.599, read-out: LUCIFERASE INFECTION ASSAY - IC50): 3.08 µM
CC(=O)NCCc1ccc(C(=O)CSc2nccn2-c2ccc(Cl)cc2)s1 | > 10 | > 10 | –
O=C(Nc1ccc2c[nH]nc2c1)C1=NN(c2ccccc2)C(=O)CC1 | > 9.9 | > 9.9 | –
Cn1c(=O)[nH]c(=O)c2ccc(C(=O)/N=c3/sccn3Cc3ccc(Cl)cc3Cl)nc21 | 5.16 | – | IC50 (HEPG2TOX_HILL_SLOPE 1.78, HEPG2TOX_R_SQUARED 0.947, PBLUC_HILL_SLOPE 2.11, PBLUC_R_SQUARED 0.878, read-out: LUCIFERASE INFECTION ASSAY - IC50): 1.82 µM
Brc1ccc(-c2noc(CCc3nc4ccccc4[nH]3)n2)cc1 | 7.07 | – | IC50 (HEPG2TOX_HILL_SLOPE 9.24, HEPG2TOX_R_SQUARED 0.722, PBLUC_HILL_SLOPE 3.58, PBLUC_R_SQUARED 0.661, read-out: LUCIFERASE INFECTION ASSAY - IC50): 3.83 µM
O=C(Nc1cccc(Cl)c1)C1=COC2=NC(=O)N(Cc3ccccc3)CCN12 | > 10 | – | IC50 (HEPG2TOX_HILL_SLOPE 1.91, HEPG2TOX_R_SQUARED 0.961, read-out: LUCIFERASE INFECTION ASSAY - IC50): > 10 µM
C[C@]12CC[C@H](O)C[C@H]1CC[C@@H]1C2CC[C@]2(C)[C@@H](C3=CC(=O)OC3)[C@@H](O)C[C@]12O (stereo partly drawn) | 8.37 | – | IC50 (HEPG2TOX_HILL_SLOPE 3.04, HEPG2TOX_R_SQUARED 0.92, PBLUC_HILL_SLOPE 1.95, PBLUC_R_SQUARED 0.451, read-out: LUCIFERASE INFECTION ASSAY - IC50): 2.7 µM
O=C(/C(=C/c1ccc(F)cc1)c1ccc(-c2ccccc2)cc1)N1CCN(c2ccccc2Cl)CC1 | > 10 | – | IC50 (FFLUC_HILL_SLOPE 11.6, FFLUC_R_SQUARED 0.516, HEPG2TOX_HILL_SLOPE 7.73, HEPG2TOX_R_SQUARED 0.736, read-out: LUCIFERASE INFECTION ASSAY - IC50): > 10 µM
Cc1cc(Cl)n2ncc(-c3ccc(F)cc3)c2n1 | 12.3 | – | IC50 (HEPG2TOX_HILL_SLOPE 0.63, HEPG2TOX_R_SQUARED 0.416, PBLUC_HILL_SLOPE 2.81, PBLUC_R_SQUARED 0.71, read-out: LUCIFERASE INFECTION ASSAY - IC50): 5.62 µM
O=C(Nc1nc2ccccc2[nH]1)c1cccc(S(=O)(=O)N(Cc2ccccc2)c2ccccc2Cl)c1 | 3.66 | – | IC50 (PBLUC_HILL_SLOPE 15.7, PBLUC_R_SQUARED 0.534, read-out: LUCIFERASE INFECTION ASSAY - IC50): 3.18 µM
C#CCOc1ccccc1/C=C1\SC(NC2CCCCC2)=NC1=O | 0.4 | – | IC50 (HEPG2TOX_HILL_SLOPE 10.3, HEPG2TOX_R_SQUARED 0.343, PBLUC_HILL_SLOPE 2.57, PBLUC_R_SQUARED 0.554, read-out: LUCIFERASE INFECTION ASSAY - IC50): 0.17 µM
c1ccn2c(Sc3ncnc4sccc34)nnc2c1 | 9.31 | – | IC50 (PBLUC_HILL_SLOPE 16.1, PBLUC_R_SQUARED 0.0872, read-out: LUCIFERASE INFECTION ASSAY - IC50): 8.13 µM
Cc1noc(C)c1C(=O)ONC(=N)c1ccc(OC(F)(F)F)cc1 | > 9.61 | > 9.61 | –
COc1ccc(-c2ccc(CCC(=O)Nc3sccc3C#N)o2)cc1 | > 10 | 7.82 | –
C=CCn1c(C)cc(C(=O)CSc2nc3ccccc3s2)c1C | 0.221 | – | IC50 (PBLUC_HILL_SLOPE 3.3, PBLUC_R_SQUARED 0.342, read-out: LUCIFERASE INFECTION ASSAY - IC50): 0.113 µM
CNc1snc(C)c1C(=O)OCc1nc(C(C)C)no1 | 6.24 | 6.11 | –

SMILES | IC90 [µM] | IC50 [1] [µM] | also measured
Cc1cccc(OCC(=O)Nc2nc(C)c(Cc3ccc4c(c3)OCO4)s2)c1 | > 10 | – | IC50 (PBLUC_HILL_SLOPE 0.768, PBLUC_R_SQUARED 0.0907, read-out: LUCIFERASE INFECTION ASSAY - IC50): > 10 µM
O=C(c1cc(C(=O)N2CCCC2)c2nc3scc(-c4ccccc4)c3c(=O)n2c1)c1cc(F)ccc1O | > 10 | – | IC50 (FFLUC_HILL_SLOPE 12.4, FFLUC_R_SQUARED 0.51, HEPG2TOX_HILL_SLOPE 7.25, HEPG2TOX_R_SQUARED 0.253, PBLUC_HILL_SLOPE 65.5, PBLUC_R_SQUARED 0.659, read-out: LUCIFERASE INFECTION ASSAY - IC50): 9.78 µM
O=C(Cc1ccc(-c2ccccc2)cc1)NCc1cn2ccccc2n1 | > 10 | – | IC50 (PBLUC_HILL_SLOPE 15.5, PBLUC_R_SQUARED 0.301, read-out: LUCIFERASE INFECTION ASSAY - IC50): 8.96 µM
N=C(NS(=O)(=O)c1ccc(Cl)c(Cl)c1)c1ccc(Cl)cc1 | > 9.07 | > 9.07 | –
Nc1ncc(-c2ccc(-c3ccccc3)cc2F)cc1-c1ccccc1F | > 9.21 | – | IC50 (PBLUC_HILL_SLOPE 34.9, PBLUC_R_SQUARED 0.254, read-out: LUCIFERASE INFECTION ASSAY - IC50): 8.92 µM
Cc1onc(-c2c(F)cccc2Cl)c1C(=O)Nc1ccc(Sc2ccccc2)nc1Sc1ccccc1 | 2.15 | 0.182 | –
COc1cc(-c2cnc3cnc(-c4cccs4)cn23)cc(OC)c1OC | 2.1 | – | IC50 (HEPG2TOX_HILL_SLOPE 1.1, HEPG2TOX_R_SQUARED 0.918, PBLUC_HILL_SLOPE 2.83, PBLUC_R_SQUARED 0.515, read-out: LUCIFERASE INFECTION ASSAY - IC50): 0.964 µM
Cc1onc(-c2c(F)cccc2Cl)c1C(=O)NC1CCSC1=O (stereo not drawn) | > 9.3 | > 9.3 | –
O=C(CN1CCN(C(=O)c2ccccc2COc2ccccc2)CC1)Nc1ccccc1Cl | > 10 | > 10 | –
CC1CSC(N(C(=O)COc2ccccc2F)c2ccc(Cl)cc2)=N1 (stereo not drawn) | > 10 | > 10 | –
CC(=O)N1CCc2cc(C(=O)C(C)OC(=O)/C(=C/c3ccc(F)cc3)c3cccs3)ccc21 (stereo not drawn) | > 10 | 7.08 | –
O=C(Nc1nc2ccccn2c1C(=O)NC1CCCC1)c1ccccc1F | 4.76 | – | IC50 (HEPG2TOX_HILL_SLOPE 0.364, HEPG2TOX_R_SQUARED 0.251, PBLUC_HILL_SLOPE 7.71, PBLUC_R_SQUARED 0.78, read-out: LUCIFERASE INFECTION ASSAY - IC50): 3.58 µM
CCOC(=O)c1sc2ncnc(NCCC(O)(c3ccc(C)o3)C(F)(F)F)c2c1C (stereo not drawn) | 3.68 | – | IC50 (HEPG2TOX_HILL_SLOPE 2.98, HEPG2TOX_R_SQUARED 0.521, PBLUC_HILL_SLOPE 13.8, PBLUC_R_SQUARED 0.46, read-out: LUCIFERASE INFECTION ASSAY - IC50): 3.14 µM
CC/C=C1/CC(=O)N(c2ccc(OC(C)=O)cc2)C1=O | > 12.1 | > 12.1 | –
Cc1cc(C(C)(C)C)cc(C)c1CCNC(=O)C1CC1C (stereo not drawn) | 9.15 | – | IC50 (HEPG2TOX_HILL_SLOPE 11.1, HEPG2TOX_R_SQUARED 0.0296, PBLUC_HILL_SLOPE 3.7, PBLUC_R_SQUARED 0.553, read-out: LUCIFERASE INFECTION ASSAY - IC50): 5.05 µM
Nc1cccc(OCc2cccnc2)c1 | > 10 | > 10 | –
CCOC(=O)N1CCN(CC(O)COc2ccc3oc4ccccc4c3c2)CC1 (stereo not drawn) | > 10 | > 10 | –
CC(C)(C)c1cc(-c2cc(C(F)(F)F)[nH]n2)c2c(c1)C(C)(C)CC2 | > 9.81 | – | IC50 (FFLUC_HILL_SLOPE 11.7, FFLUC_R_SQUARED 0.064, read-out: LUCIFERASE INFECTION ASSAY - IC50): > 9.81 µM
CC(=O)n1c(Nc2ccc(F)cc2)c(Sc2ccccc2[N+](=O)[O-])c2ccccc2c1=O | > 10 | 5.95 | –
CCN(Cc1ccc2c(c1)OCCO2)C(=O)C1CCN(c2ncnc3sc(C)c(C)c23)CC1 | > 10 | > 10 | –
Cc1nn(C)c2ncc(C(=O)Nc3ccc(F)c(Cl)c3)c(SC(C)C)c12 | > 8.4 | > 8.4 | –
COc1cc(OC)nc(Nc2nc(C(N)C3CCCCC3)cs2)n1 (stereo not drawn) | > 9.44 | – | IC50 (PBLUC_HILL_SLOPE 67.6, PBLUC_R_SQUARED 0.122, read-out: LUCIFERASE INFECTION ASSAY - IC50): 9.15 µM
